Experiments:
[1] = biological target: T1, ROCK2 protein (Homo sapiens, UniProt O75116); experiment: Degradation inducing activity of ROCK2 protein in HUVEC cells, Western blotting (Simple Western JESS); format: cell-based; set-up: endogenous in cells; host or cells: HUVEC (ATCC CRL-1730); details: HUVEC, 24 h; for inhibition at 1 µM: degradation rate at 1 µM; for inhibition at 10 µM: degradation rate at 10 µM
In short: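 HUVEC cells treated 24 h with compound at 10 µM or 1 µM, then lysed; ROCK2 quantified by capillary Western (Simple Western JESS) using rabbit mAb D1B1, normalized to total loaded protein. Degradation rate (%) calculated relative to DMSO control set at 100%, binned A ≥75%, B 50–75%, C 25–50%, D <25%.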
Target sequence in this assay (O75116 whole entry): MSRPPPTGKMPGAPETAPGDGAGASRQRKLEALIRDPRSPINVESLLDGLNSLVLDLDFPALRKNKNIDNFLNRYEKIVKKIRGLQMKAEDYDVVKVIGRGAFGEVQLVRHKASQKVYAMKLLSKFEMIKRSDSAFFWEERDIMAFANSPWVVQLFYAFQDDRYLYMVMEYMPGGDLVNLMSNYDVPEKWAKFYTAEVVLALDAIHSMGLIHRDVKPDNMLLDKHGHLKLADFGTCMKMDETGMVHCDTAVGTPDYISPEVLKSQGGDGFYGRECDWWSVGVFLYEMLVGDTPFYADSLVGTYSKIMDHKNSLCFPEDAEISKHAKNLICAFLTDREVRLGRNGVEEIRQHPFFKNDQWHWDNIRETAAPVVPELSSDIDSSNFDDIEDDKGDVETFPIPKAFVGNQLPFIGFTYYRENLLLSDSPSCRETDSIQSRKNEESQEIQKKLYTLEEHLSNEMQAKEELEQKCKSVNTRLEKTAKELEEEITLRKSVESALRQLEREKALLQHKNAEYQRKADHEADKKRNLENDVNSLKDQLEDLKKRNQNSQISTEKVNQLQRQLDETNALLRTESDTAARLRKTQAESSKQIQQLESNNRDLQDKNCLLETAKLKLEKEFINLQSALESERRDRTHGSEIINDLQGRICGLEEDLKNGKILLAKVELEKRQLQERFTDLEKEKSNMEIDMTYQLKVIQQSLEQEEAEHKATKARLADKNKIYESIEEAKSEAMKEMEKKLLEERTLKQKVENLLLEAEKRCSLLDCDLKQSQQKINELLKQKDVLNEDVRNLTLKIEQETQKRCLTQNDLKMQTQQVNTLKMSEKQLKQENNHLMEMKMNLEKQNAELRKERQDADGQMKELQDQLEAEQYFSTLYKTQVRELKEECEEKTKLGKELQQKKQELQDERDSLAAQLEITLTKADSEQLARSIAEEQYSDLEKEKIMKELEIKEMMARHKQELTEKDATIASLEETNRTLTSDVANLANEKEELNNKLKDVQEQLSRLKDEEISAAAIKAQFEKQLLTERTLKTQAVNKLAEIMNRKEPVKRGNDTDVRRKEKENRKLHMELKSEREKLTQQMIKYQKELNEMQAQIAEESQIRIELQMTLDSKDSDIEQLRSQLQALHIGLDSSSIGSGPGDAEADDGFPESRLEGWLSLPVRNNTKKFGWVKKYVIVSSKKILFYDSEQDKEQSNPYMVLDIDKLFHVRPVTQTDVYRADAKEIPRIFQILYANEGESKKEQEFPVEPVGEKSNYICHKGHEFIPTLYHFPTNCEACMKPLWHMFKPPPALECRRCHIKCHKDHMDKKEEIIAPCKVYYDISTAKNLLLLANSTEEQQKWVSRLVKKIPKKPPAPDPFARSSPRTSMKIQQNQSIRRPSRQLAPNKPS

[2] = biological target: T1, ROCK2 protein; experiment: ROCK2 kinase inhibitory activity, mobility shift assay (MSA, Carna Biosciences); format: biochemical; set-up: GST (N); purchased Carna Biosciences, Inc; host or cells: baculovirus expression system; details: for inhibition at 10 µM: evaluation concentration 10 µM; for inhibition at 10 µM / inhibition at 1 µM / inhibition at 0.03 µM: read-out: ROCK2 inhibition rate; for IC50: ROCK2 kinase; for inhibition at 1 µM: evaluation concentration 1 µM; for inhibition at 0.03 µM: evaluation concentration 0.03 µM
Description: The ROCK2 kinase inhibitory activity was measured using a mobility shift assay (MSA) provided by Carna Biosciences, Inc.
The test compound was dissolved in DMSO and further diluted with DMSO to prepare a solution having a concentration 100 times the evaluation concentration. The solution was further diluted 25 times with an assay buffer (20 mmol/L HEPES, 0.01% Triton (registered trademark) X-100, 1 mmol/L DTT, pH 7.5) to obtain a test compound solution.
The human ROCK2 kinase was expressed by fusing the catalytic domain (1 to 553 amino acids of Accession No. NP_004841.2) with GST at the N-terminus using the baculovirus expression system. GST-ROCK2 was purified by glutathione sepharose chromatography.
A 4-fold concentration substrate (LIMKtide, 1000 nmol/L) /ATP (5 µmol/L)/metal solution (Mg, 5 mmol/L) was prepared with kit buffer (20 mmol/L HEPES, 0.01% Triton (registered trademark) X-100, 5 mmol/L DTT, pH 7.5). A 2-fold concentration kinase solution was prepared with assay buffer. 5 µL of a 4-fold concentration test compound solution, 5 µL of a 4-fold concentration substrate/ATP/metal solution, and 10 µL of a 2-fold concentration kinase solution were mixed in a well of a polypropylene 384 well plate, and the mixture was reacted at room temperature for 1 hour. 70 µL of termination buffer (127 mmol/L HEPES, 0.01% Triton (registered trademark) X-100, 26.7 mmol/L EDTA-2Na, 1% DMSO, pH 7.5) was added to stop the reaction. The substrate peptide and the phosphorylated peptide in the reaction solution were separated and quantified using a LabChip (trademark) system (Perkin Elmer).
The kinase reaction was evaluated by the product ratio (P/(P + S)) calculated from the substrate peptide peak height (S) and the phosphorylated peptide peak height (P).
The average signal of the control well including all the reaction components was set to 0% suppression, the average signal of the background well (no enzyme added) was set to 100% suppression, and the inhibition rate was calculated from the average signal of the test compound test well.
The ROCK2 inhibition rate and the evaluation concentration of the test compound are shown in Table 4-1, and the IC50 value of the inhibitory activity is shown in Table 4-2. […]
Target sequence in this assay (O75116 1-553): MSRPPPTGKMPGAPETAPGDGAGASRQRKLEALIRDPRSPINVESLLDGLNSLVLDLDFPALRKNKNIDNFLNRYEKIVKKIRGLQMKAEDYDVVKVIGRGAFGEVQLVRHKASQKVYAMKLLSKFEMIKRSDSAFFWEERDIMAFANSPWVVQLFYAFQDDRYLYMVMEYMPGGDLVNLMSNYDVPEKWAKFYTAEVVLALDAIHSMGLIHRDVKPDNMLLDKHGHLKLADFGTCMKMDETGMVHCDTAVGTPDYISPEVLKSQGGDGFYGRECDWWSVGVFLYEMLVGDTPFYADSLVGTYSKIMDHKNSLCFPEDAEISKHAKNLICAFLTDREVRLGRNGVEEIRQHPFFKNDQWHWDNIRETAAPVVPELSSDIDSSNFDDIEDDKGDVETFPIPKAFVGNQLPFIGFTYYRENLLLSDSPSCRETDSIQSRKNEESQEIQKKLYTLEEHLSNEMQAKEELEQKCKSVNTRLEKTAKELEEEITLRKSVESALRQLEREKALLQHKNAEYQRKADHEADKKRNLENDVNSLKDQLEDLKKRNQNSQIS

Structure (SMILES): COC[C@H]1CN[C@H](C)CN1CC(=O)N1CC(C)(C)c2nc(CN(C)CCOCCOCCOCCN[C@H](C)c3ccc(C(=O)Nc4ccncc4)cc3)c(Cc3ccc(F)cc3)cc21 [Example 24, 4-((R)-1-(6-(4-Fluorobenzyl)-1-(2-((2R,5R)-2-(methoxymethyl)-5-methylpiperazin-1-yl)acetyl)-3,3-dimethyl-2,3-dihydro-1H-pyrrolo[3,2-b]pyridin-5-yl)-2-methyl-5,8,11-trioxa-2,14-diazahexadecan-15-yl)-N-(pyridin-4-yl)benzamide]
- inhibition at 1 µM [1]: ≥ 75%
- inhibition at 10 µM [1]: 50 to 75%
- inhibition at 10 µM [2]: ≥ 75%

Structure (SMILES): COCCOCCCN[C@H](C)c1ccc(C(=O)Nc2ccncc2)cc1 [Ref.Example 11, (R)-4-(1-((3-(2-Methoxyethoxy)propyl)amino)ethyl)-N-(pyridin-4-yl)benzamide, reference compound]
- IC50 [2]: 3 to 10 µM

Structure (SMILES): C[C@@H]1CN(CC(=O)N2CC(C)(C)c3ncc(Cc4ccc(F)cc4)cc32)[C@@H](CN(C)CCOCCOCCN[C@H](Cc2cccc(F)c2)C(=O)Nc2ccc(-c3ccncc3)cc2)CN1 [Example 9, (R)-12-(3-Fluorobenzyl)-1-((2R,5R)-1-(2-(6-(4-fluorobenzyl)-3,3-dimethyl-2,3-dihydro-1H-pyrrolo[3,2-b]pyridin-1-yl)-2-oxoethyl)-5-methylpiperazin-2-yl)-2-methyl-N-(4-(pyridin-4-yl)phenyl)-5,8-dioxa-2,11-diazatridecan-13-amide]
- inhibition at 1 µM [1]: < 25%
- inhibition at 10 µM [1]: ≥ 75%
- inhibition at 1 µM [2]: 25 to 50%

Structure (SMILES): COCCOCCCNC[C@@H](C(=O)Nc1ccc2cnccc2c1)c1ccccc1 [Ref.Example 15, (S)-N-(Isoquinolin-6-yl)-3-((3-(2-methoxyethoxy)propyl)amino)-2-phenylpropanamide, reference compound]
- IC50 [2]: < 0.03 µM

Structure (SMILES): C[C@@H]1CN(CC(=O)N2CC(C)(C)c3ncc(Cc4ccc(F)cc4)cc32)[C@@H](CN(C)CCOCCOCCOCCN[C@H](C)c2ccc(C(=O)Nc3ccncc3)cc2)CN1 [Example 3, 4-((R)-1-((2R,5R)-1-(2-(6-(4-Fluorobenzyl)-3,3-dimethyl-2,3-dihydro-1H-pyrrolo[3,2-b]pyridin-1-yl)-2-oxoethyl)-5-methylpiperazin-2-yl)-2-methyl-5,8,11-trioxa-2,14-diazahexadecan-15-yl)-N-(pyridin-4-yl)benzamide]
- inhibition at 1 µM [1]: 50 to 75%
- inhibition at 10 µM [1]: ≥ 75%
- inhibition at 10 µM [2]: ≥ 75%

Structure (SMILES): C[C@@H]1CN(CC(=O)N2CC(C)(C)c3ncc(Cc4ccc(F)cc4)cc32)[C@@H](CN(C)CCOCCOCCNC[C@@H](C(=O)Nc2ccc3cnccc3c2)c2ccccc2)CN1 [Example 16, (S)-1-((2R,5R)-1-(2-(6-(4-Fluorobenzyl)-3,3-dimethyl-2,3-dihydro-1H-pyrrolo[3,2-b]pyridin-1-yl)-2-oxoethyl)-5-methylpiperazin-2-yl)-N-(isoquinolin-6-yl)-2-methyl-13-phenyl-5,8-dioxa-2,11-diazatetradecan-14-amide]
- inhibition at 1 µM [1]: 25 to 50%
- inhibition at 10 µM [1]: ≥ 75%
- inhibition at 0.03 µM [2]: 50 to 75%

Structure (SMILES): COC[C@H]1CN[C@H](C)CN1CC(=O)N1CC(C)(C)c2ncc(Cc3cccc(OCCOCCOCCOCCOCCOCCOCCOCCN[C@H](Cc4cccc(F)c4)C(=O)Nc4ccc(-c5ccncc5)cc4)c3)cc21 [Example 56, (R)-2-(3-Fluorobenzyl)-26-(3-((1-(2-((2R,5R)-2-(methoxymethyl)-5-methylpiperazin-1-yl)acetyl)-3,3-dimethyl-2,3-dihydro-1H-pyrrolo[3,2-b]pyridin-6-yl)methyl)phenoxy)-N-(4-(pyridin-4-yl)phenyl)-6,9,12,15,18,21,24-heptaoxa-3-azahexacosanamide]
- inhibition at 1 µM [1]: 50 to 75%
- inhibition at 10 µM [1]: 50 to 75%
- inhibition at 1 µM [2]: < 25%

Structure (SMILES): COCCOCCN[C@H](Cc1cccc(F)c1)C(=O)Nc1ccc(-c2ccncc2)cc1 [Ref.Example 12, (R)-3-(3-Fluorophenyl)-2-((2-(2-methoxyethoxy)ethyl)amino)-N-(4-(pyridin-4-yl)phenyl)propanamide, reference compound]
- IC50 [2]: 0.3 to 3 µM

Structure (SMILES): COC[C@H]1CN[C@H](C)CN1CC(=O)N1CC(C)(C)c2ncc(Cc3cccc(OCCOCCOCCOCCOCCOCCOCCN[C@H](C)c4ccc(C(=O)Nc5ccncc5)cc4)c3)cc21 [Example 48, 4-((R)-23-(3-((1-(2-((2R,5R)-2-(Methoxymethyl)-5-methylpiperazin-1-yl)acetyl)-3,3-dimethyl-2,3-dihydro-1H-pyrrolo[3,2-b]pyridin-6-yl)methyl)phenoxy)-6,9,12,15,18,21-hexaoxa-3-azatricosan-2-yl)-N-(pyridin-4-yl)benzamide]
- inhibition at 1 µM [1]: 50 to 75%
- inhibition at 10 µM [1]: 50 to 75%
- inhibition at 10 µM [2]: ≥ 75%

Structure (SMILES): COC[C@H]1CN[C@H](C)CN1CC(=O)N1CC(C)(C)c2nc(CN(C)CCOCCNC[C@@H](C(=O)Nc3ccc4cnccc4c3)c3ccccc3)c(Cc3ccc(F)cc3)cc21 [Example 36, (S)-3-((2-(2-(((6-(4-Fluorobenzyl)-1-(2-((2R,5R)-2-(methoxymethyl)-5-methylpiperazin-1-yl)acetyl)-3,3-dimethyl-2,3-dihydro-1H-pyrrolo[3,2-b]pyridin-5-yl)methyl)(methyl)amino)ethoxy)ethyl)amino)-N-(isoquinolin-6-yl)-2-phenylpropanamide]
- inhibition at 1 µM [1]: 25 to 50%
- inhibition at 10 µM [1]: ≥ 75%
- inhibition at 0.03 µM [2]: 50 to 75%

Structure (SMILES): COCCOCCN[C@H](C)c1ccc(C(=O)Nc2ccncc2)cc1 [Ref.Example 10, (R)-4-(1-((2-(2-Methoxyethoxy)ethyl)amino)ethyl)-N-(pyridin-4-yl)benzamide, reference compound]
- IC50 [2]: 3 to 10 µM

Structure (SMILES): COC[C@H]1CN[C@H](C)CN1CC(=O)N1CC(C)(C)c2ncc(Cc3ccccc3OCCOCCOCCOCCNC[C@@H](C(=O)Nc3ccc4cnccc4c3)c3ccccc3)cc21 [Example 80, (S)-N-(Isoquinolin-6-yl)-1-(2-((1-(2-((2R,5R)-2-(methoxymethyl)-5-methylpiperazin-1-yl)acetyl)-3,3-dimethyl-2,3-dihydro-1H-pyrrolo[3,2-b]pyridin-6-yl)methyl)phenoxy)-14-phenyl-3,6,9-trioxa-12-azapentadecan-15-amide]
- inhibition at 1 µM [1]: 50 to 75%
- inhibition at 10 µM [1]: ≥ 75%
- inhibition at 0.03 µM [2]: 25 to 50%

Structure (SMILES): COCCOCCNC[C@@H](C(=O)Nc1ccc2cnccc2c1)c1ccccc1 [Ref.Example 14, (S)-N-(Isoquinolin-6-yl)-3-((2-(2-methoxyethoxy)ethyl)amino)-2-phenylpropanamide, reference compound]
- IC50 [2]: < 0.03 µM

Structure (SMILES): COCCOCCCN[C@H](Cc1cccc(F)c1)C(=O)Nc1ccc(-c2ccncc2)cc1 [Ref.Example 13, (R)-3-(3-Fluorophenyl)-2-((3-(2-methoxyethoxy)propyl)amino)-N-(4-(pyridin-4-yl)phenyl)propanamide, reference compound]
- IC50 [2]: 0.03 to 0.3 µM

Structure (SMILES): COC[C@H]1CN[C@H](C)CN1CC(=O)N1CC(C)(C)c2nc(CN(C)CCOCCOCCOCCN[C@H](Cc3cccc(F)c3)C(=O)Nc3ccc(-c4ccncc4)cc3)c(Cc3ccc(F)cc3)cc21 [Example 31, (R)-15-(3-Fluorobenzyl)-1-(6-(4-fluorobenzyl)-1-(2-((2R,5R)-2-(methoxymethyl)-5-methylpiperazin-1-yl)acetyl)-3,3-dimethyl-2,3-dihydro-1H-pyrrolo[3,2-b]pyridin-5-yl)-2-methyl-N-(4-(pyridin-4-yl)phenyl)-5,8,11-trioxa-2,14-diazahexadecan-16-amide]
- inhibition at 1 µM [1]: 50 to 75%
- inhibition at 10 µM [1]: 50 to 75%
- inhibition at 1 µM [2]: 25 to 50%

Source: patent EP4578856A1, “HETEROCYCLIC COMPOUND” (Ubience Inc., priority 2022, dated 2024)
